Five compounds from ChEMBL document CHEMBL4699567, “hDM2 protein-binding peptides screened from stapled α-helical peptide phage display libraries with different types of staple linkers” (Bioorg Med Chem Lett, 2020) can be followed below.

SMILES strings stand for the structures. Starred links: 1 amine or outer side, 2 acyl side, 3 side chain; linkers in the order of their positions; H or OH if unused. Positions of bridges follow the written chain, without caps; N, C: chain ends. Residues, ends and D or L forms follow the SMILES beside them. *: point of attachment. 5FAM = O=C1OC2(c3ccc(O)cc3Oc3cc(O)ccc32)c2ccc(C(=O)*)cc21; CH2CONH(CH2)4NHCOCH2 = O=C(C[*:1])NCCCCNC(=O)C[*:2]

Assay [1] concerns the target T1, E3 ubiquitin-protein ligase Mdm2 (Homo sapiens, UniProt Q00987). Nature of the assay: Binding affinity to human MDM2 assessed as dissociation constant by fluorescence polarization assay. A general note: In fluorescence polarisation assays a small probe gives low polarisation when free and higher when bound to something large.
Assay [2] deals with T1, E3 ubiquitin-protein ligase Mdm2. The experiment in a line: Binding affinity to human MDM2 assessed as dissociation constant in presence of 50 uM p53 peptide by fluorescence polarization assay.

T1 sequence (Q00987 whole entry): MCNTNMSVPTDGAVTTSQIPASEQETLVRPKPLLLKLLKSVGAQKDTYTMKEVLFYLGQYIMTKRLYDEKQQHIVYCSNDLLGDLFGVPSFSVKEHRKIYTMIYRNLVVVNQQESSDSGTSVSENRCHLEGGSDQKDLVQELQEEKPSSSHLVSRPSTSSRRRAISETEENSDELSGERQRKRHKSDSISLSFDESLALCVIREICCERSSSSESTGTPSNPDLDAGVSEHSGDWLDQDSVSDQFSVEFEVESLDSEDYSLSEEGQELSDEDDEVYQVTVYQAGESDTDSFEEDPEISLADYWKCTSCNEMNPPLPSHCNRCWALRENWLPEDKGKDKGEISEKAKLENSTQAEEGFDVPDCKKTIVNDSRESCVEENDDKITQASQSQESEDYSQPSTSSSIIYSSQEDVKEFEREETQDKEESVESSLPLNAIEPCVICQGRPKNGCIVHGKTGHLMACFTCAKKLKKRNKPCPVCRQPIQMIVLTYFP

In the case of `CSCC[C@H](NC(=O)[C@H](C)NC(=O)CN)C(=O)N[C@@H](CCC(=O)O)C(=O)N[C@H]1CSCC(=O)NCCCCNC(=O)CSC[C@@H](C(=O)N[C@@H](CCCCN)C(=O)N[C@@H](CCCCN)C(=O)N[C@@H](C)C(=O)NCC(=O)NCC(=O)NCC(=O)NCC(=O)N[C@@H](CCCCNC(=O)c2ccc3c(c2)C(=O)OC32c3ccc(O)cc3Oc3cc(O)ccc32)C(N)=O)NC(=O)[C@H](CCC(=O)O)NC(=O)[C@H](CCCCN)NC(=O)[C@H](CCC(=O)O)NC(=O)[C@H](CCCCN)NC(=O)[C@H](CC(C)C)NC(=O)[C@H](Cc2c[nH]c3ccccc23)NC1=O` (H-GAMECWLKEKECKKAGGGGK(5FAM)-NH2; linker 5-12 via CH2CONH(CH2)4NHCOCH2), the figures for the Kd in assay [1] and in assay [2] were 178 µM and 571 µM, respectively.
In the same order, the values of `CSCC[C@H](NC(=O)[C@H](C)NC(=O)CN)C(=O)N[C@@H](CCC(=O)O)C(=O)N[C@@H](CS)C(=O)N[C@@H](Cc1c[nH]c2ccccc12)C(=O)N[C@@H](CC(C)C)C(=O)N[C@@H](CCCCN)C(=O)N[C@@H](CCC(=O)O)C(=O)N[C@@H](CCCCN)C(=O)N[C@@H](CCC(=O)O)C(=O)N[C@@H](CS)C(=O)N[C@@H](CCCCN)C(=O)N[C@@H](CCC(N)=O)C(=O)N[C@@H](C)C(=O)NCC(=O)NCC(=O)NCC(=O)NCC(=O)N[C@@H](CCCCNC(=O)c1ccc2c(c1)C(=O)OC21c2ccc(O)cc2Oc2cc(O)ccc21)C(N)=O` (H-GAMECWLKEKECKQAGGGGK(5FAM)-NH2) are 195 µM and 436 µM.
As to `CSCC[C@H](NC(=O)[C@H](C)NC(=O)CN)C(=O)N[C@@H](CCC(=O)O)C(=O)N[C@H]1CSCC(=O)NCCCCNC(=O)CSC[C@@H](C(=O)N[C@@H](CCCCN)C(=O)N[C@@H](CCC(N)=O)C(=O)N[C@@H](C)C(=O)NCC(=O)NCC(=O)NCC(=O)NCC(=O)N[C@@H](CCCCNC(=O)c2ccc3c(c2)C(=O)OC32c3ccc(O)cc3Oc3cc(O)ccc32)C(N)=O)NC(=O)[C@H](CCC(=O)O)NC(=O)[C@H](CCCCN)NC(=O)[C@H](CCC(=O)O)NC(=O)[C@H](CCCCN)NC(=O)[C@H](CC(C)C)NC(=O)[C@H](Cc2c[nH]c3ccccc23)NC1=O` (H-GAMECWLKEKECKQAGGGGK(5FAM)-NH2; linker 5-12 via CH2CONH(CH2)4NHCOCH2), the Kd (in general, the concentration at which binding is half-saturated) in assay [1] was found to be 140 µM.
For `CC[C@H](C)[C@H](NC(=O)[C@H](CCCCN)NC(=O)[C@H](CS)NC(=O)[C@H](CCC(=O)O)NC(=O)[C@H](CCC(N)=O)NC(=O)[C@H](CCC(=O)O)NC(=O)[C@H](CCCCN)NC(=O)[C@H](CC(C)C)NC(=O)[C@H](Cc1c[nH]c2ccccc12)NC(=O)[C@H](CS)NC(=O)[C@H](CCC(=O)O)NC(=O)[C@H](CCSC)NC(=O)[C@H](C)NC(=O)CN)C(=O)N[C@@H](C)C(=O)NCC(=O)NCC(=O)NCC(=O)NCC(=O)N[C@@H](CCCCNC(=O)c1ccc2c(c1)C(=O)OC21c2ccc(O)cc2Oc2cc(O)ccc21)C(N)=O` (H-GAMECWLKEQECKIAGGGGK(5FAM)-NH2), the figures for the dissociation constant Kd in assay [1] and in assay [2] were 116 µM and 445 µM, respectively.
Take `CC(C)C[C@H](NC(=O)[C@H](CCC(=O)O)NC(=O)[C@H](CCCCN)NC(=O)[C@H](CC(N)=O)NC(=O)[C@@H](NC(=O)[C@H](CS)NC(=O)[C@H](CCC(=O)O)NC(=O)[C@H](Cc1c[nH]c2ccccc12)NC(=O)[C@H](C)NC(=O)CN)[C@@H](C)O)C(=O)N[C@@H](Cc1c[nH]c2ccccc12)C(=O)N[C@@H](CS)C(=O)N[C@@H](CCCCN)C(=O)N[C@@H](CCC(N)=O)C(=O)N[C@@H](C)C(=O)NCC(=O)NCC(=O)NCC(=O)NCC(=O)N[C@@H](CCCCNC(=O)c1ccc2c(c1)C(=O)OC21c2ccc(O)cc2Oc2cc(O)ccc21)C(N)=O` (H-GAWECTNKELWCKQAGGGGK(5FAM)-NH2): the Kd in assay [1] turned out to be 553 µM.
